Data taken from DBAASP.
In brackets after ≈: the same amount, converted by molar mass. Values belong to the compound of their own block, whether it stands above or below them.

Columns and labels:
Experiment in all cases: ≥ marks a high value that may be exact or a test limit, other limits are often not marked, values filed in µg/mL are converted to µM
[1] = system: Acinetobacter baumannii 4-MRGN
[2] = system: Enterococcus faecium
[3] = system: Pseudomonas aeruginosa ATCC 27853
[4] = system: Staphylococcus aureus USA 300
[5] = system: Bacillus subtilis ATCC 6633
[6] = system: Escherichia coli ATCC 25922
[7] = system: Salmonella enterica subsp. enterica serovar Enteritidis BNCC 103134
[8] = system: Staphylococcus aureus ATCC 25923
[9] = system: Candida albicans ATCC 90028
[10] = system: Candida albicans
[11] = system: Enterobacter cloacae NHTCC 53001
[12] = system: Enterococcus faecalis ATCC 29212
[13] = system: Escherichia coli 0112 EIEC26
[14] = system: Escherichia coli 0112 EIEC27
[15] = system: Escherichia coli 0143 EIEC7
[16] = system: Escherichia coli 0152 EIEC1
[17] = system: Escherichia coli 0164 EIEC6
[18] = system: Escherichia coli ATCC 35218
[19] = system: Escherichia coli AX-054-1-3
[20] = system: Escherichia coli AX-100-3-1
[21] = system: Escherichia coli AX-109-2-3
[22] = system: Escherichia coli AX-128-3-3
[23] = system: Escherichia coli O157:H7 282
[24] = system: Escherichia coli O157:H7 30328
[25] = system: Escherichia coli O157:H7 734/94
[26] = system: Escherichia coli O157:H7 CB6392
[27] = system: Escherichia coli O26:H- CB6418
[28] = system: Escherichia coli O26:H11 3
[29] = system: Escherichia coli O6:K15:H31 536
[30] = system: Escherichia coli U7103
[31] = system: Escherichia coli U7794
[32] = system: Escherichia coli
[33] = system: Klebsiella pneumoniae KK3 9904
[34] = system: Proteus mirabilis ATCC 25933
[35] = system: Staphylococcus aureus NCTC 8325
[36] = system: Staphylococcus aureus
[37] = system: Staphylococcus epidermidis RP62A
[38] = system: Acinetobacter baumannii MTCC 9829
[39] = system: Alcaligenes faecalis MTCC 1937
[40] = system: Alkalihalobacillus alcalophilus MTCC 860
[41] = system: Bordetella bronchiseptica MTCC 6837
[42] = system: Citrobacter freundii MTCC 1658
[43] = system: Citrobacter koseri MTCC 1657
[44] = system: Corynebacterium glutamicum MTCC 2679
[45] = system: Enterococcus faecalis MTCC 439
[46] = system: Escherichia coli K12 MG1655
[47] = system: Haemophilus influenzae MTCC 621
[48] = system: Klebsiella aerogenes MTCC 111
[49] = system: Klebsiella oxytoca MTCC 2275
[50] = system: Klebsiella pneumoniae MTCC 7407
[51] = system: Pluralibacter gergoviae MTCC 3826
[52] = system: Proteus mirabilis MTCC 3158
[53] = system: Proteus vulgaris MTCC 1771
[54] = system: Pseudomonas aeruginosa MTCC 3542
[55] = system: Salmonella enterica MTCC 9844
[56] = system: Salmonella enterica subsp. enterica serovar Typhimurium ATCC 14028
[57] = system: Shigella boydii MTCC 11947
[58] = system: Shigella flexneri MTCC 1457
[59] = system: Staphylococcus aureus MTCC 3160
[60] = system: Staphylococcus haemolyticus MTCC 3383
[61] = system: Stenotrophomonas maltophilia MTCC 1890
[62] = system: Vibrio cholerae MTCC 3904

MIC [1]: 25 µM (≈ 25.7 µg/mL) | MIC [2]: 25 µM (≈ 25.7 µg/mL) | MIC [3]: 50 µM (≈ 51.4 µg/mL) | MIC [4]: ≥ 50 µM
SMILES: C[C@H](N)C(=O)N[C@H](C(=O)N[C@H]1CSSC[C@@H](C(=O)N[C@@H](CCCN=C(N)N)C(=O)N[C@H](C(=O)NCC(=O)N[C@@H](CCCN=C(N)N)C(=O)O)[C@@H](C)O)NC(=O)[C@H](Cc2ccc(O)cc2)NC1=O)[C@@H](C)O [ATCYCRTGR]

MIC [5]: ≥ 150 µM | MIC [6]: 100 µM (≈ 63 µg/mL) | MIC [7]: ≥ 150 µM | MIC [8]: 100 µM (≈ 63 µg/mL)
SMILES: CC(C)[C@H](NC(=O)[C@H](C)NC(=O)[C@H](CCCN=C(N)N)NC(=O)[C@H](CC(=O)O)NC(=O)[C@@H](NC(=O)[C@H](C)N)C(C)C)C(=O)O [AVDRAV]

MIC [9]: ≥ 40 µM | MIC [10]: 70 µM (≈ 186 µg/mL) | MIC [11]: 20 µM (≈ 53 µg/mL) | MIC [12]: 20 µM (≈ 53 µg/mL) | MIC [13]: ≥ 40 µM | MIC [14]: 20 µM (≈ 53 µg/mL) | MIC [15]: 20 µM (≈ 53 µg/mL) | MIC [16]: 20 µM (≈ 53 µg/mL) | MIC [17]: 20 µM (≈ 53 µg/mL) | MIC [6]: 20 µM (≈ 53 µg/mL) | MIC [18]: 20 µM (≈ 53 µg/mL) | MIC [19]: 20 µM (≈ 53 µg/mL) | MIC [20]: 20 µM (≈ 53 µg/mL) | MIC [21]: 10 µM (≈ 26.5 µg/mL) | MIC [22]: 10 µM (≈ 26.5 µg/mL) | MIC [23]: 5 µM (≈ 13.3 µg/mL) | MIC [24]: 10 µM (≈ 26.5 µg/mL) | MIC [25]: 10 µM (≈ 26.5 µg/mL) | MIC [26]: 10 µM (≈ 26.5 µg/mL) | MIC [27]: 10 µM (≈ 26.5 µg/mL) | MIC [28]: 5 µM (≈ 13.3 µg/mL) | MIC [29]: 5 µM (≈ 13.3 µg/mL) | MIC [30]: 5 µM (≈ 13.3 µg/mL) | MIC [31]: 10 µM (≈ 26.5 µg/mL) | MIC [32]: 2 µM (≈ 5.3 µg/mL) | MIC [33]: ≥ 40 µM | MIC [34]: ≥ 100 µM | MIC [3]: 20 µM (≈ 53 µg/mL) | MIC [35]: 20 µM (≈ 53 µg/mL) | MIC [36]: 50 µM (≈ 133 µg/mL) | MIC [37]: 20 µM (≈ 53 µg/mL)
SMILES: CC[C@@H](C)[C@H](N=C(O)[C@H](CCCCN)N=C(O)C(CS)N=C(O)C(C)N=C(O)[C@H](N=C(O)[C@@H](Cc1ccccc1)N=C(O)CN=C(O)[C@H](CC(C)C)N=C(O)CN=C(O)[C@H](N=C(O)[C@H](CCCCN)N=C(O)CN=C(O)[C@H](CC(C)C)N=C(O)[C@H](CC(=N)O)N=C(O)[C@H](CCCCN)N=C(O)[C@H](CC(C)C)N=C(O)[C@H](N=C(O)[C@H](CO)N=C(O)C(CC(C)C)N=C(O)[C@H](CCSC)N=C(O)[C@H](N)CO)C(C)C)C(C)C)C(C)C)C(O)=N[C@H](CC(=N)O)C(O)=N[C@H](CCCCN)C(O)=N[C@H](CCC(=N)O)C(O)=N[C@H](CS)C(=O)O (some centres undefined) [SMLSVLKNLGKVGLGFVACKINKQC]

SMILES: CC[C@H](C)[C@H](NC(=O)[C@H](C)NC(=O)[C@H](CCCN=C(N)N)NC(=O)[C@H](C)NC(=O)[C@H](CC(C)C)NC(=O)[C@@H](N)Cc1ccc(O)cc1)C(=O)N[C@@H](CCCN=C(N)N)C(=O)N[C@@H](CCCN=C(N)N)C(=O)N[C@H](C(=O)N[C@@H](CC(C)C)C(=O)N[C@@H](C)C(=O)N[C@@H](CCCN=C(N)N)C(=O)N[C@@H](CC(C)C)C(=O)N[C@@H](CC(C)C)C(=O)N[C@@H](CC(C)C)C(=O)O)[C@@H](C)O [YLARAIRRTLARLLL]
MIC [38]: 8.89 µM (≈ 16 µg/mL) | MIC [39]: 17.8 µM (≈ 32 µg/mL) | MIC [40]: 8.89 µM (≈ 16 µg/mL) | MIC [41]: 2.22 µM (≈ 4 µg/mL) | MIC [42]: 8.89 µM (≈ 16 µg/mL) | MIC [43]: 8.89 µM (≈ 16 µg/mL) | MIC [44]: 2.22 µM (≈ 4 µg/mL) | MIC [45]: ≥ 35.6 µM | MIC [46]: 17.8 µM (≈ 32 µg/mL) | MIC [47]: 4.45 µM (≈ 8 µg/mL) | MIC [48]: 17.8 µM (≈ 32 µg/mL) | MIC [49]: 8.89 µM (≈ 16 µg/mL) | MIC [50]: 17.8 µM (≈ 32 µg/mL) | MIC [51]: ≥ 71.1 µM | MIC [52]: ≥ 71.1 µM | MIC [53]: ≥ 71.1 µM | MIC [54]: ≥ 71.1 µM | MIC [55]: 8.89 µM (≈ 16 µg/mL) | MIC [56]: 17.8 µM (≈ 32 µg/mL) | MIC [57]: 17.8 µM (≈ 32 µg/mL) | MIC [58]: 4.45 µM (≈ 8 µg/mL) | MIC [59]: 8.89 µM (≈ 16 µg/mL) | MIC [60]: 8.89 µM (≈ 16 µg/mL) | MIC [61]: 8.89 µM (≈ 16 µg/mL) | MIC [62]: ≥ 35.6 µM
